Source: patent US8586747B2, “3,3-dimethyl tetrahydroquinoline derivatives” (Hoffmann-La Roche Inc., priority 2010, dated 2013)

System: AMP-activated protein kinase (AMPK)
Assay: ADP Quest assay for AMPK activators
Format: biochemical
Parameters: key: fold AMPK activation with vs without activator at 30 µM
Details: fold of AMPK activation to phosphorylate SAMS peptide without and with an activator at the concentration of 30 µM
Method: ADP Quest™ Assay for AMPK Activators
This method evaluates AMP-activated protein kinase (AMPK) activity through detecting the accumulation of ADP product using an ADP Quest kit and determining the E30 values of the small molecular AMPK activators. ADP Quest kit (DiscoveRx, Fremont, Calif.) is stored at −20° C. before use. Before an experiment, thaw the kit (include assay buffer, ADP standard solution, reagent A and reagent B) and equilibrate to room temperature. Dispense the ADP Quest reagents into single-use aliquots and store at −20° C. The compound concentrations typically range from 0 µM to 100 µM by 2-fold dilution. AMP concentrations range from […] to 1 mM as the reference control. In an assay, thaw and equilibrate the assay buffer, reagent A and reagent B to room temperature for 30 minutes prior to use. Mix ATP, SAMS peptide substrate and compound, and place them into the 384-well assay plate. Add reagent A and B based on the assay kit protocol. Incubate the assay plate at room temperature for 30 minutes after addition the mixture followed by the addition of AMPK protein (Invitrogen, CA) to initiate the AMPK phosphorylation reaction. At the same time, reactions with AMPK activator AMP in the absence of enzyme is included as blank control. The reaction fluorescence signal is monitored and recorded on Envision in kinetic mode with the excitation wavelength of 530 nm and emission wavelength of 590 nm. The E30 value, defined as the fold of AMPK activation to phosphorylate SAMS peptide without and with an activator at the concentration of 30 µM, is calculated and analyzed using Prism 5.0.

Row | Structure (SMILES) | E30
1 | CC1(C)Cc2cc(C(=O)NS(C)(=O)=O)ccc2NC1c1cc(F)cc(N2CCCC2)c1 (stereo not drawn) [Example 61, N-[2-(3-Fluoro-5-pyrrolidin-1-yl-phenyl)-3,3-dimethyl-1,2,3,4-tetrahydro-quinoline-6-carbonyl]-methanesulfonamide] | 1.61
2 | CC1(C)Cc2cc(C(=O)NS(=O)(=O)C3CC3)ccc2NC1c1cc(F)cc(N2CCCC2)c1 (stereo not drawn) [Example 62, Cyclopropanesulfonic acid [2-(3-fluoro-5-pyrrolidin-1-yl-phenyl)-3,3-dimethyl-1,2,3,4-tetrahydro-quinoline-6-carbonyl]-amide] | 1.61
3 | Cc1cc(C2Nc3ccc(C(=O)O)cc3CC2(C)C)cc(N2CCOCC2)c1 (stereo not drawn) [Example 63, 3,3-Dimethyl-2-(3-methyl-5-morpholin-4-yl-phenyl)-1,2,3,4-tetrahydro-quinoline-6-carboxylic acid] | 1.56
4 | Cc1cc(C2Nc3ccc(C(=O)NS(=O)(=O)C4CC4)cc3CC2(C)C)cc(N2CCOCC2)c1 (stereo not drawn) [Example 64, Cyclopropanesulfonic acid [3,3-dimethyl-2-(3-methyl-5-morpholin-4-yl-phenyl)-1,2,3,4-tetrahydro-quinoline-6-carbonyl]-amide] | 1.48
5 | Cc1cc(C2Nc3ccc(C(=O)NS(C)(=O)=O)cc3CC2(C)C)cc(N2CCOCC2)c1 (stereo not drawn) [Example 65, N-[3,3-Dimethyl-2-(3-methyl-5-morpholin-4-yl-phenyl)-1,2,3,4-tetrahydro-quinoline-6-carbonyl]-methanesulfonamide] | 1.46
6 | COc1cc(C2Nc3ccc(C(=O)O)cc3CC2(C)C)cc(N2CCOCC2)c1 (stereo not drawn) [Example 66, 2-(3-Methoxy-5-morpholin-4-yl-phenyl)-3,3-dimethyl-1,2,3,4-tetrahydro-quinoline-6-carboxylic acid] | 1.42
7 | COc1cc(C2Nc3ccc(C(=O)NS(=O)(=O)C4CC4)cc3CC2(C)C)cc(N2CCOCC2)c1 (stereo not drawn) [Example 67, Cyclopropanesulfonic acid [2-(3-methoxy-5-morpholin-4-yl-phenyl)-3,3-dimethyl-1,2,3,4-tetrahydro-quinoline-6-carbonyl]-amide] | 1.38
8 | COc1cc(C2Nc3ccc(C(=O)NS(C)(=O)=O)cc3CC2(C)C)cc(N2CCOCC2)c1 (stereo not drawn) [Example 68, N-[2-(3-Methoxy-5-morpholin-4-yl-phenyl)-3,3-dimethyl-1,2,3,4-tetrahydro-quinoline-6-carbonyl]-methanesulfonamide] | 1.33
9 | CC1(C)Cc2cc(C(=O)NS(C)(=O)=O)ccc2NC1c1cc(C#N)cc(N2CCOCC2)c1 (stereo not drawn) [Example 69, N-[2-(3-Cyano-5-morpholin-4-yl-phenyl)-3,3-dimethyl-1,2,3,4-tetrahydro-quinoline-6-carbonyl]-methanesulfonamide] | 1.28
10 | CC1(C)Cc2cc(C(=O)NS(=O)(=O)C3CC3)ccc2NC1c1cc(F)cc(C2CCCCC2)c1 (stereo not drawn) [Example 70, Cyclopropanesulfonic acid [2-(3-cyclohexyl-5-fluoro-phenyl)-3,3-dimethyl-1,2,3,4-tetrahydro-quinoline-6-carbonyl]-amide] | 1.23
11 | CC1(C)Cc2cc(C(=O)O)ccc2NC1c1cc(F)cc(N2CCNCC2)c1 (stereo not drawn) [Example 71, 2-(3-Fluoro-5-piperazin-1-yl-phenyl)-3,3-dimethyl-1,2,3,4-tetrahydro-quinoline-6-carboxylic acid] | 1.22
12 | CC1(C)Cc2cc(C(=O)O)ccc2NC1c1ccc(N2CCOCC2)cc1 (stereo not drawn) [Example 72, 3,3-Dimethyl-2-(4-morpholin-4-yl-phenyl)-1,2,3,4-tetrahydro-quinoline-6-carboxylic acid] | 1.21
13 | CC1(C)Cc2cc(C(=O)NS(=O)(=O)C3CC3)ccc2NC1c1ccc(N2CCOCC2)cc1 (stereo not drawn) [Example 73, Cyclopropanesulfonic acid [3,3-dimethyl-2-(4-morpholin-4-yl-phenyl)-1,2,3,4-tetrahydro-quinoline-6-carbonyl]-amide] | 1.21
14 | CC1(C)Cc2cc(C(=O)NS(C)(=O)=O)ccc2NC1c1ccc(N2CCOCC2)cc1 (stereo not drawn) [Example 74, N-[3,3-Dimethyl-2-(4-morpholin-4-yl-phenyl)-1,2,3,4-tetrahydro-quinoline-6-carbonyl]-methanesulfonamide] | 1.19
15 | CC(C)N1CCN(c2cc(F)cc(C3Nc4ccc(C(=O)NS(C)(=O)=O)cc4CC3(C)C)c2)CC1 (stereo not drawn) [Example 75, N-{2-[3-Fluoro-5-(4-isopropyl-piperazin-1-yl)-phenyl]-3,3-dimethyl-1,2,3,4-tetrahydro-quinoline-6-carbonyl}-methanesulfonamide] | 1.19
16 | CC1(C)Cc2cc(C(=O)O)ccc2NC1c1cc(F)cc(N2CCCC2=O)c1 (stereo not drawn) [Example 76, 2-[3-Fluoro-5-(2-oxo-pyrrolidin-1-yl)-phenyl]-3,3-dimethyl-1,2,3,4-tetrahydro-quinoline-6-carboxylic acid] | 1.47
17 | CC1(C)Cc2cc(C(=O)NS(C)(=O)=O)ccc2NC1c1cc(F)cc(N2CCCC2=O)c1 (stereo not drawn) [Example 77, N-{2-[3-fluoro-5-(2-oxo-pyrrolidin-1-yl)-phenyl]-3,3-dimethyl-1,2,3,4-tetrahydro-quinoline-6-carbonyl}-methanesulfonamide] | 1.42
18 | COC(=O)c1cc(Cl)cc2c1NC(c1cccc(NC(C)(C)C(=O)O)c1)C(C)(C)C2 (stereo not drawn) [Example 78, 2-[3-(1-Carboxy-1-methyl-ethylamino)-phenyl]-6-chloro-3,3-dimethyl-1,2,3,4-tetrahydro-quinoline-8-carboxylic acid methyl ester] | 1.79
19 | CNC(=O)C(C)(C)Nc1cccc(C2Nc3c(cc(Cl)cc3C(=O)O)CC2(C)C)c1 (stereo not drawn) [Example 79, 6-Chloro-3,3-dimethyl-2-[3-(1-methyl-1-methylcarbamoyl-ethylamino)-phenyl]-1,2,3,4-tetrahydro-quinoline-8-carboxylic acid] | 1.33
20 | CC(C)(Nc1cccc(C2Nc3c(cc(Cl)cc3C(=O)O)CC2(C)C)c1)C(=O)O (stereo not drawn) [Example 80, 2-[3-(1-Carboxy-1-methyl-ethylamino)-phenyl]-6-chloro-3,3-dimethyl-1,2,3,4-tetrahydro-quinoline-8-carboxylic acid] | 1.72
21 | CC(=O)N1CCN(c2cccc(C3Nc4c(cc(Cl)cc4C(=O)O)CC3(C)C)c2)CC1 (stereo not drawn) [Example 81, 2-[3-(4-Acetyl-piperazin-1-yl)-phenyl]-6-chloro-3,3-dimethyl-1,2,3,4-tetrahydro-quinoline-8-carboxylic acid] | 2.85
22 | Cc1ccccc1N1CCN(c2cccc(C3Nc4c(cc(Cl)cc4C(=O)O)CC3(C)C)c2)CC1 (stereo not drawn) [Example 82, 6-Chloro-3,3-dimethyl-2-[3-(4-o-tolyl-piperazin-1-yl)-phenyl]-1,2,3,4-tetrahydro-quinoline-8-carboxylic acid] | 1.5
23 | CC(C)(C)c1ccc(-c2cccc(C3Nc4ccc(C(=O)NS(C)(=O)=O)cc4CC3(C)C)c2)cc1 (stereo not drawn) [Example 83, N-[2-(4′-tert-Butyl-biphenyl-3-yl)-3,3-dimethyl-1,2,3,4-tetrahydro-quinoline-6-carbonyl]-methanesulfonamide] | 1.35
24 | CC(C)Oc1ccc(-c2cccc(C3Nc4ccc(C(=O)O)cc4CC3(C)C)c2)cc1 (stereo not drawn) [Example 84, 2-(4′-Isopropoxy-biphenyl-3-yl)-3,3-dimethyl-1,2,3,4-tetrahydro-quinoline-6-carboxylic acid] | 1.25
25 | CC(C)Oc1ccc(-c2cccc(C3Nc4ccc(C(=O)NS(C)(=O)=O)cc4CC3(C)C)c2)cc1 (stereo not drawn) [Example 85, N-[2-(4′-Isopropoxy-biphenyl-3-yl)-3,3-dimethyl-1,2,3,4-tetrahydro-quinoline-6-carbonyl]-methanesulfonamide] | 1.29
26 | CC(C)Oc1ccc(-c2cccc(C3Nc4ccc(C(=O)NS(=O)(=O)C5CC5)cc4CC3(C)C)c2)cc1 (stereo not drawn) [Example 86, Cyclopropanesulfonic acid [2-(4′-isopropoxy-biphenyl-3-yl)-3,3-dimethyl-1,2,3,4-tetrahydro-quinoline-6-carbonyl]-amide] | 2.74
27 | CC1(C)Cc2cc(C(=O)O)ccc2NC1c1cccc(N2CCN(c3ccc(Cl)cc3)CC2)c1 (stereo not drawn) [Example 87, 2-{3-[4-(4-Chloro-phenyl)-piperazin-1-yl]-phenyl}-3,3-dimethyl-1,2,3,4-tetrahydro-quinoline-6-carboxylic acid] | 1.3
28 | CC1(C)Cc2cc(C(=O)NS(C)(=O)=O)ccc2NC1c1cccc(N2CCN(c3ccc(Cl)cc3)CC2)c1 (stereo not drawn) [Example 88, N-(2-{3-[4-(4-Chloro-phenyl)-piperazin-1-yl]-phenyl}-3,3-dimethyl-1,2,3,4-tetrahydro-quinoline-6-carbonyl)-methanesulfonamide] | 1.35
29 | Cc1ccc(N2CCN(c3cccc(C4Nc5ccc(C(=O)O)cc5CC4(C)C)c3)CC2)c(C)c1 (stereo not drawn) [Example 89, 2-{3-[4-(2,4-Dimethyl-phenyl)-piperazin-1-yl]-phenyl}-3,3-dimethyl-1,2,3,4-tetrahydro-quinoline-6-carboxylic acid] | 1.3
30 | Cc1ccc(N2CCN(c3cccc(C4Nc5ccc(C(=O)NS(C)(=O)=O)cc5CC4(C)C)c3)CC2)c(C)c1 (stereo not drawn) [Example 90, N-(2-{3-[4-(2,4-Dimethyl-phenyl)-piperazin-1-yl]-phenyl}-3,3-dimethyl-1,2,3,4-tetrahydro-quinoline-6-carbonyl)-methanesulfonamide] | 1.44
